In patent US9527869B2, “Indolizine derivatives as phoshoinositide 3-kinases inhibitors” (CHIESI FARMACEUTICI S.P.A., priority 2014, dated 2016):

Experiments:
Format in all cases: biochemical
PI3Kδ = target: T1, PI3Kδ (Homo sapiens, UniProt O00329); experiment: In vitro determination of the PI3K enzyme inhibitory activity in the cell free assay (ADP-Glo Kinase Assay), PI3Kδ; settings: ATP 80 μM, read-out: PI3K delta inhibition
T1 construct: purchased Millipore Ltd (Billerica, Mass.)
In short: (§1)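 IC50 values came from four-parameter logistic fitting of ADP-Glo luminescence after 60 min kinase reactions at room temperature. ATP (final) was set per isoform: α 50 μM, β 100 μM, γ 30 μM, δ 80 μM. Substrates were phosphatidylinositol and phosphatidylserine (50 μM in 2× Tris pH 7.5 buffer), with human recombinant enzymes.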

PI3Kα = target: T2, PI3Kα (Homo sapiens, UniProt P42336); experiment: In vitro determination of the PI3K enzyme inhibitory activity in the cell free assay (ADP-Glo Kinase Assay), PI3Kα; settings: ATP 50 μM, read-out: PI3K alpha inhibition
T2 construct: purchased Millipore Ltd (Billerica, Mass.)
In short: as §1

PI3Kγ = target: T3, PI3Kγ (Homo sapiens, UniProt P48736); experiment: In vitro determination of the PI3K enzyme inhibitory activity in the cell free assay (ADP-Glo Kinase Assay), PI3Kγ; settings: ATP 30 μM, read-out: PI3K gamma inhibition
T3 construct: purchased Millipore Ltd (Billerica, Mass.)
In short: as §1

PI3Kβ = target: T4, PI3Kβ (Homo sapiens, UniProt P42338); experiment: In vitro determination of the PI3K enzyme inhibitory activity in the cell free assay (ADP-Glo Kinase Assay), PI3Kβ; settings: ATP 100 μM, read-out: PI3K beta inhibition
T4 construct: purchased Millipore Ltd (Billerica, Mass.)
In short: as §1

T1 sequence (O00329 whole entry): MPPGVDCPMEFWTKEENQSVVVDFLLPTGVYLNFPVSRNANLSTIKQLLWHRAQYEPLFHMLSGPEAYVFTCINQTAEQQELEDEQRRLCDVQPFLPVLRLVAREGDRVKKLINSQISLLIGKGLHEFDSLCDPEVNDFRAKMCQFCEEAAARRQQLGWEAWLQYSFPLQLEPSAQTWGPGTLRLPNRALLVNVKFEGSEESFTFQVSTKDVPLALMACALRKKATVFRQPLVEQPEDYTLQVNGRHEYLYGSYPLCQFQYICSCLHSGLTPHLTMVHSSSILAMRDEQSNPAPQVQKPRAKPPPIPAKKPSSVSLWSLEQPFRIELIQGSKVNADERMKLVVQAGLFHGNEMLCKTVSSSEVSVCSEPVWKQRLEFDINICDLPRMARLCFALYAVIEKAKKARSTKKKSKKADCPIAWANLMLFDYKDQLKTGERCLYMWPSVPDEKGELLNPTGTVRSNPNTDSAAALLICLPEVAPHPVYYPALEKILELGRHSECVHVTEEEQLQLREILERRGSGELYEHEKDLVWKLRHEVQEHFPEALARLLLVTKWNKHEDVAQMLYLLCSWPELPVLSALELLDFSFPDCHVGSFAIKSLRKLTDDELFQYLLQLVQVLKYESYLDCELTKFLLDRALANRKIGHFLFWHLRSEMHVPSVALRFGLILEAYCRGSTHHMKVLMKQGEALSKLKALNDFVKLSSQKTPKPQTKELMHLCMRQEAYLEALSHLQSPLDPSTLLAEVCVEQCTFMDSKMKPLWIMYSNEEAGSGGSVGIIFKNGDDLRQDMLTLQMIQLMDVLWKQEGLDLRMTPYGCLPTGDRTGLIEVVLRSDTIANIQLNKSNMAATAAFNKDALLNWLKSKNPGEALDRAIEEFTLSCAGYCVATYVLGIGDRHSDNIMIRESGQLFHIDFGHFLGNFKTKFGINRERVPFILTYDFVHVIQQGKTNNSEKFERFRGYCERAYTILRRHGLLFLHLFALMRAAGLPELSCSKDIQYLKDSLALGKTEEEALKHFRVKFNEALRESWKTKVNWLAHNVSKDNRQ
T1 sequence (P27986 whole entry partner): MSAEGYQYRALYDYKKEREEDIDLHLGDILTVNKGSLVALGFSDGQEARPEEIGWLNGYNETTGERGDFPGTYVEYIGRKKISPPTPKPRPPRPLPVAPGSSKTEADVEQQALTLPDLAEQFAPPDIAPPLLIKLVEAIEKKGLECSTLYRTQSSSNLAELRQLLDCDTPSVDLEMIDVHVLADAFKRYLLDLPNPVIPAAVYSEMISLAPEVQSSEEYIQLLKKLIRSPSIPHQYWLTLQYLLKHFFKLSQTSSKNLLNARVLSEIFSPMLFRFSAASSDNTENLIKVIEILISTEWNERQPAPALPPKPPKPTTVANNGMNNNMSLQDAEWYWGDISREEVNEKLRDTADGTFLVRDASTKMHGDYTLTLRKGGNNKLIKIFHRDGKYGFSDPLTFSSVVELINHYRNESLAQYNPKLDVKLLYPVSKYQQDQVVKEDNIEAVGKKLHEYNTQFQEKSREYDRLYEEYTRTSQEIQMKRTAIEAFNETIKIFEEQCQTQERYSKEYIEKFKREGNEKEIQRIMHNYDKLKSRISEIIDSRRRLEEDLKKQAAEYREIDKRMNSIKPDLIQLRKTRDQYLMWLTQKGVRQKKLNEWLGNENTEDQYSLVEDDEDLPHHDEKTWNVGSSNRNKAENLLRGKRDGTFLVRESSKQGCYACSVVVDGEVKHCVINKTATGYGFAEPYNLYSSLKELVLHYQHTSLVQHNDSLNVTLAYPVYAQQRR
T2 sequence (P42336 whole entry): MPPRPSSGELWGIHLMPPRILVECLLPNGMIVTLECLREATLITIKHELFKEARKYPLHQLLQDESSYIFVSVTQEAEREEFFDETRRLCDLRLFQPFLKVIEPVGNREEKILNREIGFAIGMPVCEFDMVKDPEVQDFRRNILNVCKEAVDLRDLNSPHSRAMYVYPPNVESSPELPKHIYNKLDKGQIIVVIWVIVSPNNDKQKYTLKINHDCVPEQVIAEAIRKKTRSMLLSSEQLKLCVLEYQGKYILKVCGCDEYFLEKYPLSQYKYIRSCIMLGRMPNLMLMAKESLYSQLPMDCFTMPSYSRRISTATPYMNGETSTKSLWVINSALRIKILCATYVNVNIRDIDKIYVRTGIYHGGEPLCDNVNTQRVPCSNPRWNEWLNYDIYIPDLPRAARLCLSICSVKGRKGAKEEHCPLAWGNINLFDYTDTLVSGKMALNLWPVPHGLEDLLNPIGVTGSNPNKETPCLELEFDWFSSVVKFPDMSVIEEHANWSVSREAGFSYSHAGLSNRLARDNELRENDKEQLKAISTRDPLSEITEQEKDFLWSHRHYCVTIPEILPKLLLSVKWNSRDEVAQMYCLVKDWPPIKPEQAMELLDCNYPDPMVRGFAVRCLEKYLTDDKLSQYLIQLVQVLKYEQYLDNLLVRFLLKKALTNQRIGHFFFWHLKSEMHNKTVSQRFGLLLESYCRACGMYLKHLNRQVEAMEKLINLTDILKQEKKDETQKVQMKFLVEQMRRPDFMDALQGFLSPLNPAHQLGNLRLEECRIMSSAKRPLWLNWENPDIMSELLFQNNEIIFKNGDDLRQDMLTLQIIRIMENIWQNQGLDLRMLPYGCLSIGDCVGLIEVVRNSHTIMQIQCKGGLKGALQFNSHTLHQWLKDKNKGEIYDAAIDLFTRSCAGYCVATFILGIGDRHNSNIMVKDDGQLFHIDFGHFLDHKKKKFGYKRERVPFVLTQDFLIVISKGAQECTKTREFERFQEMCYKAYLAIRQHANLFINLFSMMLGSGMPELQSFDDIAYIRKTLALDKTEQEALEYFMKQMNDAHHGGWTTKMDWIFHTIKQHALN
T2 sequence (P27986 whole entry partner): as the sequence (P27986 whole entry partner) above
T3 sequence (P48736 whole entry): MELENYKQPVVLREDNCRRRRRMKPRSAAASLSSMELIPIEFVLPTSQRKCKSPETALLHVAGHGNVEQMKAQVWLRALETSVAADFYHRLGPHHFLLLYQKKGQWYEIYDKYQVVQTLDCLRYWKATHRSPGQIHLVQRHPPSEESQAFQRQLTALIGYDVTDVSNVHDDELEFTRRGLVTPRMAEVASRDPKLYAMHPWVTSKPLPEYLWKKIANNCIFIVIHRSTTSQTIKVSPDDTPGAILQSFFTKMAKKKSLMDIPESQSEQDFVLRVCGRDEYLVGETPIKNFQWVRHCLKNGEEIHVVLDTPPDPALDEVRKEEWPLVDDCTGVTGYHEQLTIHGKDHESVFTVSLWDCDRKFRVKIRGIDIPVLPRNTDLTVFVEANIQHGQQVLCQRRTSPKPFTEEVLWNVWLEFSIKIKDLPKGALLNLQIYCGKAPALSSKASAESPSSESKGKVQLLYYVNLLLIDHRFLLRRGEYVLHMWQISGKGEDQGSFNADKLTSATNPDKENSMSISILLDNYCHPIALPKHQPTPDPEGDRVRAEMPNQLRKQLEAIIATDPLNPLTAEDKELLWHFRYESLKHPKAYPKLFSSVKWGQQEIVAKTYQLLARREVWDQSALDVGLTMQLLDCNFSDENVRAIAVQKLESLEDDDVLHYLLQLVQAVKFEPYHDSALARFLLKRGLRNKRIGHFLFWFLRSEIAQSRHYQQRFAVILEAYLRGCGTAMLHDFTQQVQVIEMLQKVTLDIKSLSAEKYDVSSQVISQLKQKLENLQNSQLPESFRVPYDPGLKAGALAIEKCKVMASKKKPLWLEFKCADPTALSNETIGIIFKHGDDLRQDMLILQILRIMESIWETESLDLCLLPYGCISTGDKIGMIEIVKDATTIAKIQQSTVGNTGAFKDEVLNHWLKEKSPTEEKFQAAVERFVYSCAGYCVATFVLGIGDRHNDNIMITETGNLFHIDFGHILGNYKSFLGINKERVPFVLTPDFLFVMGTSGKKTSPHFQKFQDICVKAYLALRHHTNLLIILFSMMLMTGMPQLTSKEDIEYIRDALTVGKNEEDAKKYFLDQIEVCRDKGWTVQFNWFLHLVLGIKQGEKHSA
T4 sequence (P42338 whole entry): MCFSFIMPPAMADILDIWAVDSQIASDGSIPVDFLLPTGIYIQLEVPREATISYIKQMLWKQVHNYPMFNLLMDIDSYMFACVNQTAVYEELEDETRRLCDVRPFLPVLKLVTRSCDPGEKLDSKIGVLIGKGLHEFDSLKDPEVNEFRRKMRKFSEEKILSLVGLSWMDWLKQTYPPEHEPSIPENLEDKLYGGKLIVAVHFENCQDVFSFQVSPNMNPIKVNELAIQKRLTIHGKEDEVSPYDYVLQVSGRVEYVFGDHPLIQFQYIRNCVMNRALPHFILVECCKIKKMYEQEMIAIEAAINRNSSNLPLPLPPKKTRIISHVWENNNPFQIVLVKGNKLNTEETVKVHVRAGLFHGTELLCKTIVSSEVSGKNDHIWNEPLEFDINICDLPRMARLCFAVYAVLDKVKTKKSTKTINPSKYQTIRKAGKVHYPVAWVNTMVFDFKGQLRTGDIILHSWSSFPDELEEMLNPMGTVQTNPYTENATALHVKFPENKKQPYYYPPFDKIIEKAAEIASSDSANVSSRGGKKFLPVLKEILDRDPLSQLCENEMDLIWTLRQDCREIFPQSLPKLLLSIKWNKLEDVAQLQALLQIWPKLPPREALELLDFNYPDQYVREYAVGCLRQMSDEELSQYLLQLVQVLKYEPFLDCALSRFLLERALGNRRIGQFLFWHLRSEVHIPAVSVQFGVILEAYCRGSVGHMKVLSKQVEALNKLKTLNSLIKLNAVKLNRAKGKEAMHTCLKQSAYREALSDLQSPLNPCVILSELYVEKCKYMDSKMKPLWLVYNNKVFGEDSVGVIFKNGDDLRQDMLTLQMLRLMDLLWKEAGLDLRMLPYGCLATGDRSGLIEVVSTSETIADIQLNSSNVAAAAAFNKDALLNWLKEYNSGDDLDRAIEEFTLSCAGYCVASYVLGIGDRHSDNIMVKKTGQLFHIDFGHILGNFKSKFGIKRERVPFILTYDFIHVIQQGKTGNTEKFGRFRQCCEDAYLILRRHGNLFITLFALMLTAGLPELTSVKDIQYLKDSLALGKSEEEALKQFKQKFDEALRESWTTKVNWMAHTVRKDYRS
T4 sequence (P27986 whole entry partner): as the sequence (P27986 whole entry partner) above

SMILES	IC50 (PI3Kδ) [nM]	IC50 (PI3Kα) [nM]	IC50 (PI3Kγ) [nM]	IC50 (PI3Kβ) [nM]
CC(c1cc2ccccn2c1-c1ccc(=O)n(CCN2CCN(C)CC2)n1)n1nc(-c2cc(O)cc(F)c2)c2c(N)ncnc21 (stereo not shown) [Example 135, 6-(2-{1-[4-amino-3-(3-fluoro-5-hydroxyphenyl)-1H-pyrazolo[3,4-d]pyrimidin-1-yl]-ethyl}indolizin-3-yl)-2-[2-(4-methylpiperazin-1-yl)ethyl]-2,3-dihydropyridazin-3-one]	10 to 1000	> 1000	> 1000	10 to 1000
C[C@H](c1cc2ccccn2c1-c1ccc(CN2CCN(C)CC2)cn1)n1nc(-c2cc(O)cc(F)c2)c2c(N)ncnc21 (single isomer, unassigned) [Example 114b, 3-{4-amino-1-[1-(3-{5-[(4-methylpiperazin-1-yl)methyl]pyridin-2-yl}indolizin-2-yl)ethyl]-1H-pyrazolo[3,4-d]pyrimidin-3-yl}-5-fluorophenol]	< 10	10 to 1000	10 to 1000	10 to 1000
CC(c1cc2ccccn2c1-c1ccn(CCN(C)C)c(=O)c1)n1nc(-c2cc(O)cc(F)c2)c2c(N)ncnc21 (stereo not shown) [Example 133, 4-(2-{1-[4-amino-3-(3-fluoro-5-hydroxyphenyl)-1H-pyrazolo[3,4-d]pyrimidin-1-yl]-ethyl}indolizin-3-yl)-1-[2-(dimethylamino)-ethyl]-1,2-dihydropyridin-2-one]	< 10	> 1000	10 to 1000	10 to 1000
CC(c1cc2ccccn2c1-c1ccn(CCN(C)C)c(=O)c1)n1nc(-c2cc(O)cc(F)c2)c2c(N)ncnc21 (single isomer, unassigned) [Example 133b, 4-(2-{1-[4-amino-3-(3-fluoro-5-hydroxyphenyl)-1H-pyrazolo[3,4-d]pyrimidin-1-yl]ethyl}indolizin-3-yl)-1-[2-(dimethylamino)ethyl]-1,2-dihydropyridin-2-one]	< 10	10 to 1000	10 to 1000	10 to 1000
CC(c1cc2ccc(C(F)(F)F)cn2c1-c1ccccn1)n1nc(-c2cc(O)cc(F)c2)c2c(N)ncnc21 (stereo not shown) [Example 88, 3-(4-amino-1-{1-[3-(pyridin-2-yl)-6-(trifluoromethyl)indolizin-2-yl]ethyl}-1H-pyrazolo[3,4-d]pyrimidin-3-yl)-5-fluorophenol]	10 to 1000	> 1000	> 1000	> 1000
CC(c1cc2ccccn2c1-c1ccc(OCCN2CCOCC2)cn1)n1nc(-c2cc(O)cc(F)c2)c2c(N)ncnc21 (stereo not shown) [Example 119, 3-{4-amino-1-[1-(3-{5-[2-(morpholin-4-yl)ethoxy]pyridin-2-yl}indolizin-2-yl)ethyl]-1H-pyrazolo[3,4-d]-pyrimidin-3-yl}-5-fluorophenol]	< 10	> 1000	> 1000	10 to 1000
CC(c1cc2ccccn2c1-c1ccc(CN2CCOCC2)s1)n1nc(-c2cc(O)cc(F)c2)c2c(N)ncnc21 (stereo not shown) [Example 90, 3-[4-amino-1-(1-{3-[5-(morpholin-4-ylmethyl)thiophen-2-yl]indolizin-2-yl}ethyl)-1H-pyrazolo[3,4-d]pyrimidin-3-yl]-5-fluorophenol]	< 10	10 to 1000	10 to 1000	10 to 1000
C[C@H](c1cc2ccccn2c1-c1ccc(CN2CCOCC2)cn1)n1nc(-c2cc(O)cc(F)c2)c2c(N)ncnc21 (single isomer, unassigned) [Example 108a, 3-[4-amino-1-(1-{3-[5-(morpholin-4-ylmethyl)pyridin-2-yl]indolizin-2-yl}ethyl)-1H-pyrazolo[3,4-d]pyrimidin-3-yl]-5-fluorophenol]	< 10	> 1000	> 1000	10 to 1000
CC(c1cc2ccccn2c1CN1CCC2(CCCN(C)C2)CC1)n1nc(-c2cc(O)cc(F)c2)c2c(N)ncnc21 (stereo not shown) [Example 142, 3-(4-amino-1-{1-[3-({2-methyl-2,9-diazaspiro[5.5]-undecan-9-yl}methyl)indolizin-2-yl]ethyl}-1H-pyrazolo[3,4-d]-pyrimidin-3-yl)-5-fluorophenol]	10 to 1000	> 1000	10 to 1000	> 1000
CC(c1cc2ccccn2c1-c1ccc(CN2CCN(C)CC2)cn1)n1nc(-c2cc(O)cc(F)c2)c2c(N)ncnc21 (stereo not shown) [Example 114, 3-{4-amino-1-[1-(3-{5-[(4-methylpiperazin-1-yl)methyl]pyridin-2-yl}indolizin-2-yl)ethyl]-1H-pyrazolo-[3,4-d]pyrimidin-3-yl}-5-fluorophenol]	< 10	> 1000	> 1000	10 to 1000
C[C@H](c1cc2ccccn2c1-c1ccc(CN(CCO)CCO)cn1)n1nc(-c2cc(O)cc(F)c2)c2c(N)ncnc21 (single isomer, unassigned) [Example 117a, 3-(4-amino-1-{1-[3-(5-{[bis(2-hydroxyethyl)amino]methyl}pyridin-2-yl)indolizin-2-yl]ethyl}-1H-pyrazolo[3,4-d]pyrimidin-3-yl)-5-fluorophenol]	< 10	10 to 1000	> 1000	10 to 1000
CC(Nc1ncnc(N)c1C#N)c1cc2ccccn2c1-c1cccs1 (stereo not shown) [Example 37, 4-amino-6-({1-[3-(thiophen-2-yl)indolizin-2-yl]ethyl}amino)pyrimidine-5-carbonitrile]	10 to 1000	> 1000	> 1000	> 1000

More lines, now with the values ahead:

IC50 (PI3Kδ) [nM]	IC50 (PI3Kα) [nM]	IC50 (PI3Kγ) [nM]	IC50 (PI3Kβ) [nM]	SMILES
> 1000	> 1000	> 1000	> 1000	Nc1nccnc1C(=O)NCc1cn2ccccc2c1-c1ccccn1 [Example 55, 3-amino-N-{[1-(pyridin-2-yl)indolizin-2-yl]methyl}pyrazine-2-carboxamide]
> 1000	> 1000	> 1000	> 1000	Nc1ncnc2c1ncn2Cc1cn2ccccc2c1-c1ccccc1 [Example 10, 9-[(1-phenylindolizin-2-yl)methyl]-9H-purin-6-amine]
< 10	> 1000	> 1000	10 to 1000	CC(Nc1ncnc(N)c1C#N)c1cc2c(F)cccn2c1-c1ccccn1 (stereo not shown) [Example 39, 4-amino-6-({1-[8-fluoro-3-(pyridin-2-yl)indolizin-2-yl]ethyl}amino)pyrimidine-5-carbonitrile]
> 1000	> 1000	> 1000	> 1000	Cc1ccccc1-c1c(Cn2cnc(N)c3ncnc2-3)cc2ccccn12 [Example 8, 3-{[3-(2-methylphenyl)indolizin-2-yl]methyl}-3H-purin-6-amine]
> 1000	> 1000	> 1000	> 1000	c1ccc(-c2c(CNc3ncnc4[nH]cnc34)cc3ccccn23)nc1 [Example 14, N-{[3-(pyridin-2-yl)indolizin-2-yl]methyl}-9H-purin-6-amine]
> 1000	> 1000	> 1000	> 1000	CC(Nc1ncnc(N)c1CO)c1cc2ccccn2c1-c1ccccn1 (stereo not shown) [Example 56, [4-amino-6-({1-[3-(pyridin-2-yl)indolizin-2-yl]ethyl}amino)pyrimidin-5-yl]methanol]
< 10	10 to 1000	10 to 1000	10 to 1000	Nc1ncnc2c1c(-c1cc(O)cc(F)c1)nn2Cc1cc2ccccn2c1-c1ccccn1 [Example 97, 3-(4-amino-1-{[3-(pyridin-2-yl)indolizin-2-yl]methyl}-1H-pyrazolo[3,4-d]pyrimidin-3-yl)-5-fluorophenol]
> 1000	> 1000	> 1000	> 1000	Nc1ncn(Cc2cc3ccccn3c2-c2ccccc2)c2ncnc1-2 [Example 2, 3-[(3-phenylindolizin-2-yl)methyl]-3H-purin-6-amine]
10 to 1000	> 1000	> 1000	> 1000	CNC(=O)c1c(N)ncnc1NC(C)c1cc2ccccn2c1-c1ccccn1 (stereo not shown) [Example 51, 4-amino-N-methyl-6-({1-[3-(pyridin-2-yl)indolizin-2-yl]ethyl}amino)pyrimidine-5-carboxamide]
10 to 1000	> 1000	> 1000	> 1000	CC(c1cc2ccccn2c1-c1ccccn1)n1nc(C#CCO)c2c(N)ncnc21 (stereo not shown) [Example 102, 3-(4-amino-1-{1-[3-(pyridin-2-yl)indolizin-2-yl]ethyl}-1H-pyrazolo[3,4-d]pyrimidin-3-yl)prop-2-yn-1-ol]
10 to 1000	> 1000	> 1000	10 to 1000	CC(Nc1ncnc(N)c1C=O)c1cc2ccccn2c1-c1ccccn1 (stereo not shown) [Example 47, 4-amino-6-({1-[3-(pyridin-2-yl)indolizin-2-yl]ethyl}amino)pyrimidine-5-carbaldehyde]
> 1000	> 1000	> 1000	> 1000	CC(c1cc2ccccn2c1-c1ccccn1)n1nc(-c2cc(F)cc(-c3nnn[nH]3)c2)c2c(N)ncnc21 (stereo not shown) [Example 78, 3-[3-fluoro-5-(1H-1,2,3,4-tetrazol-5-yl)phenyl]-1-{1-[3-(pyridin-2-yl)indolizin-2-yl]ethyl}-1H-pyrazolo[3,4-d]pyrimidin-4-amine:ammonia 2:1]
10 to 1000	> 1000	> 1000	> 1000	CC(c1cc2ccccn2c1-c1ccccn1)n1nc(-c2cccc(CO)c2)c2c(N)ncnc21 (stereo not shown) [Example 64, [3-(4-amino-1-{1-[3-(pyridin-2-yl)indolizin-2-yl]ethyl}-1H-pyrazolo[3,4-d]pyrimidin-3-yl)phenyl]methanol]
